Results on ten compounds are retold here after patent publication US5639904A, “1-aryloxy-3-alkylamino-2-propanol nitrate esters, the use thereof and corresponding pharmaceutical composition” (Prodesfarma, S.A., priority 1993, dated 1997).

Read-outs that look alike come from different tables or passages of the source.

What all share (assay type): cell-based
Test [1] concerns helical strips of swine coronary artery (potassium-induced contraction). The test is described as follows: In vitro coronary vasodilator activity: antagonism of contractions induced by potassium (35 mM). Particulars: Sus scrofa; for inhibition at 100 µM: read-out: inhibition of K+-induced contractions in swine coronary artery; for IC50: read-out: inhibitory concentration 50 (IC50), effect on K+-induced contractions in swine coronary artery. As for the experimental part:
(§1) The coronary vasodilator activity of the synthesized products was determined in vitro from their capacity to antagonize the contractions induced by a) potassium (35 mM) b) calcium (1.5 mM) and c) serotonin (1 mM) in helical strips of swine coronary artery, using Nitroglycerine and Nicorandil as reference drugs (Table 1).

In test [2] the test system is helical strips of swine coronary artery (serotonin-induced contraction). Kind of test: In vitro coronary vasodilator activity: antagonism of contractions induced by serotonin (1 mM). As to conditions: Sus scrofa; for IC50: read-out: inhibitory concentration 50 (IC50), effect on serotonin-induced contractions in swine coronary artery. The procedure: as §1
The test system of test [3] is helical strips of swine coronary artery (calcium-induced contraction). The test is described as follows: In vitro coronary vasodilator activity: antagonism of contractions induced by calcium (1.5 mM). Particulars: Sus scrofa; for IC50: read-out: inhibitory concentration 50 (IC50), effect on Ca2+-induced contractions in swine coronary artery. As for the experimental part:
as §1

Test [4] concerns the target T1, β1-adrenergic (isolated guinea pig left auricle) (Cavia porcellus, UniProt H0W3H1).
T1 construct: electrically stimulated isolated left auricle of the guinea pig; from tissue; host or cells: isolated left auricle of guinea pig
Kind of test: In vitro β1-adrenergic blocking activity: antagonism of isoprenaline-induced positive inotropic response in electrically stimulated isolated left auricle. From the text: In parallel tests, the effect of the said compounds on the positive isoprenaline-induced inotropic response in electrically stimulated isolated left auricle of the guinea pig, as evidence of β1 -adrenergic blocking activity (Table 2) was established.
BLOCKING ACTIVITY IN VITRO

The mark [5] stands for this setting: electrically stimulated isolated guinea pig left auricle, read-out: inhibitory concentration 50 (IC50), antagonism of isoprenaline-induced positive inotropic response.

T1 sequence (H0W3H1 1-470): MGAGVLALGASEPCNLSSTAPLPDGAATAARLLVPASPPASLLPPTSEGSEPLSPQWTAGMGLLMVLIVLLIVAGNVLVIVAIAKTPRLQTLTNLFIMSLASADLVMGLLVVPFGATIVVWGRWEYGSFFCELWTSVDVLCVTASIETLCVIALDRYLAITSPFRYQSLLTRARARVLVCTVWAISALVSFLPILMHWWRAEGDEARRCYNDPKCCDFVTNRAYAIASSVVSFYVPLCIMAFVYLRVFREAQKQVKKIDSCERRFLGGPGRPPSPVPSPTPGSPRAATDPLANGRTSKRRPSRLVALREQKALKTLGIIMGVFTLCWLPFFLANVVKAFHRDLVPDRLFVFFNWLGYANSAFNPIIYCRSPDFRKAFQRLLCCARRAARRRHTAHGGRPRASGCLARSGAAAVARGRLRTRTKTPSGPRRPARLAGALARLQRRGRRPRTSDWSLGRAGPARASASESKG

In general, inhibition refers to the share of the control response that was lost under treatment. In the case of `COCCc1ccc(OCC(O)CNC(C)C)cc1` (stereo not drawn) [Metoprolol, reference compound], the inhibition at 100 µM in test [1] (at 0.1 mM, potassium 35 mM) worked out at 30%; in test [2] (serotonin 1 mM), 20%.

Turning to `CC(C)NCC(O)COc1c(CC(=O)NCCO[N+](=O)[O-])ccc2ccccc12` (stereo not drawn) [1-(2-hydroxy-3-isopropylamino)propoxy-N-(2-nitroxyethyl)-2-naphthalene acetamide], the IC50 in test [1] (potassium 35 mM) came out at 40.7 µM.

On to `CC(C)NCC(O)COc1ccc(CC(=O)OCCO[N+](=O)[O-])cc1` (stereo not drawn) [2-nitroxyethyl 4-[(2-hydroxy-3-isopropylamino)propoxy]phenyl acetate], for which the IC50 in test [1] (potassium 35 mM) was 0.3 µM; in test [3] (calcium 1.5 mM), 13.1 µM; in test [2] (serotonin 1 mM) it was 5.7 µM; in test [4] (setting [5]), 7.6 µM.

For the compound `CC(C)NCC(O)COc1ccc(CC(N)=O)cc1` (stereo not drawn) [Atenolol, reference compound], the inhibition at 100 µM in test [1] is 25%. The IC50 in test [4] was determined as 0.7 µM.

For `CC(C)NCC(O)COc1ccc2ccccc2c1CC(=O)NCCO[N+](=O)[O-]` (stereo not drawn) [2-(2-hydroxy-3-isopropylamino)propoxy-N-(2-nitroxyethyl)-1-naphthalene acetamide], in test [1] (potassium 35 mM), the IC50 is 28.6 µM. In addition, the inhibition at 10 µM in test [3] (at 10 μM, calcium 1.5 mM, read-out: inhibition of Ca2+-induced contractions in swine coronary artery) came to 20%. For the same compound, the inhibition at 100 µM was found to be 50% in test [2] (serotonin 1 mM) and 25% in test [4] (at 0.1 mM, electrically stimulated isolated guinea pig left auricle).

Regarding `CC(C)NCC(O)COc1ccc(COCCCO[N+](=O)[O-])cc1` (stereo not drawn) [1-isopropylamino-3-[4-(3-nitroxy)propoxymethyl]phenoxy-2-propanol], the IC50 in test [1] (potassium 35 mM) was determined as 7.1 µM; in test [2] (serotonin 1 mM) it was 6 µM; in test [4] (setting [5]), 0.7 µM. In test [3] (at 30 μM, calcium 1.5 mM, read-out: inhibition of Ca2+-induced contractions in swine coronary artery), the inhibition at 30 µM worked out at 50%.

For the compound `CC(C)NCC(O)COc1ccc(COCCO[N+](=O)[O-])cc1` (stereo not drawn) [1-isopropylamino-3-[4-(2-nitroxy)ethoxymethyl]phenoxy-2-propanol], the values for the IC50 in test [1] (potassium 35 mM), in test [2] (serotonin 1 mM) and in test [4] (setting [5]) were 3.4 µM, 13.3 µM and 0.6 µM, respectively.

As for `O=[N+]([O-])OCC(CO[N+](=O)[O-])O[N+](=O)[O-]` [Nitroglycerine, reference compound], the figures for the IC50 in test [1] (potassium 35 mM) and in test [2] (serotonin 1 mM) were 1.3 µM and 1 µM, respectively. Further, the inhibition at 100 µM in test [3] (at 0.1 mM, calcium 1.5 mM, read-out: inhibition of Ca2+-induced contractions in swine coronary artery) was found to be 50%.

With `CC(C)NCC(O)COc1ccc(COCC(CO[N+](=O)[O-])O[N+](=O)[O-])cc1` (stereo not drawn) [1-isopropylamino-3-[4-(2,3-dinitroxy)-propoxymethyl]phenoxy-2-propanol], the IC50 in test [1] turned out to be 0.5 µM; in test [3], 1.7 µM; in test [2] it was 1.6 µM; in test [4], 4.8 µM.

As for `O=C(NCCO[N+](=O)[O-])c1cccnc1` [Nicorandil, reference compound], the IC50 in test [1] (potassium 35 mM) stood at 49.7 µM; in test [3] (calcium 1.5 mM), 169 µM; in test [2] (serotonin 1 mM), 14.7 µM.
